Data on 2 compounds can be found in article doi:10.1101/2020.10.25.354381v1, “Multi-dimensional digital bioassay platform based on an air-sealed femtoliter reactor array device” (biorxiv, 2020).

One may read the IC50 as the concentration at which inhibition is half-maximal.

For test [1], the target named is T1, EcALP (D101S, an active mutant of Escherichia coli ALP) (Escherichia coli, UniProt P00634, D123S).
T1 construct: gene phoA; D101S mutant, cell-free synthesis (PURExpress with disulfide bond enhancer), not purified; homodimeric metalloenzyme
T1 sequence (P00634 22-471 D123S): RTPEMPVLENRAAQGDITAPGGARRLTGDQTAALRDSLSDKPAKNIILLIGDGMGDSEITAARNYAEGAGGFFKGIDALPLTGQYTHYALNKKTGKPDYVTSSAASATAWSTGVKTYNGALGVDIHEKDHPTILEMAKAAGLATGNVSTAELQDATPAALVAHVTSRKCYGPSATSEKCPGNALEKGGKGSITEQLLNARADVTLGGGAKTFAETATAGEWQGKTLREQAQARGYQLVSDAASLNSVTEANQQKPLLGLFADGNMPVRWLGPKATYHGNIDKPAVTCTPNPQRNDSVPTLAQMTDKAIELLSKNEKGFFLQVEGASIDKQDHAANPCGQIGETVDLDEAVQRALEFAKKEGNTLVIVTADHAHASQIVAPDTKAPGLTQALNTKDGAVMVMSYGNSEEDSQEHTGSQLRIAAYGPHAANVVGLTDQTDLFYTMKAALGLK
The test is described as follows: fluorogenic ALP assay, bulk microtiter plate, Hill fit. The class given is biochemical. Conditions: […] 4-MUP, […] DEA-HCl, […] MgCl2, […] ZnSO4, pH […] TWEEN20, […] °C; […] min preincubation; diluted cell-free synthesis mixture.

The test system of test [2] is T2, CiALP (calf intestinal ALP).
T2 construct: gene ALPI; homodimeric metalloenzyme
The description is as above. The class given is biochemical, Bos taurus. Conditions: […] 4-MUP, […] DEA-HCl, […] MgCl2, […] ZnSO4, pH […] TWEEN20, […] °C; […] min preincubation.

With `[O]=[V]([OH])([OH])[OH]` [V, vanadate], the values for the IC50 in test [1] and in test [2] were 7800 µM and 200 µM, respectively. In turn, `O=P(O)(O)O` [Pi, phosphate] had a concentration for half-maximal inhibition (IC50) in test [2] of 1600 µM.
